Assay results reported in PubChem BioAssay (NCI).
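Interpolation was linear, between the two tested concentrations surrounding the appropriate level; five concentrations were tested over 48 hours in 96-well plates. TGI is the concentration that stops growth completely.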

Tests used:
Assay in all cases: NCI tumour cell line growth inhibition, 48 h
CAKI-1 renal = tested on: CAKI-1 renal
CCRF-CEM leukemia = tested on: CCRF-CEM leukemia
HL-60(TB) leukemia = tested on: HL-60(TB) leukemia
HT29 colon = tested on: HT29 colon
NCI-H522 lung = tested on: NCI-H522 lung
OVCAR-8 ovarian = tested on: OVCAR-8 ovarian
SF-539 CNS = tested on: SF-539 CNS
SK-MEL-28 melanoma = tested on: SK-MEL-28 melanoma
SK-MEL-5 melanoma = tested on: SK-MEL-5 melanoma
UACC-62 melanoma = tested on: UACC-62 melanoma
NCI-H460 lung = tested on: NCI-H460 lung

COc1cc(NC(C)=O)ccc1C(=O)NN1C(=O)C(Cl)C1c1ccco1 (stereo unspecified)
TGI (CAKI-1 renal): > 100 µM | TGI (CCRF-CEM leukemia): > 100 µM | TGI (HL-60(TB) leukemia): > 100 µM | TGI (HT29 colon): > 100 µM | TGI (NCI-H522 lung): > 100 µM | TGI (OVCAR-8 ovarian): > 100 µM | TGI (SF-539 CNS): > 100 µM | TGI (SK-MEL-28 melanoma): > 100 µM | TGI (SK-MEL-5 melanoma): > 100 µM | TGI (UACC-62 melanoma): > 100 µM

Cc1cc(N=Nc2c(O)ccc3ccccc23)ccc1N=Nc1cccc([N+](C)(C)C)c1
TGI (CAKI-1 renal): 62.9 µM | TGI (CCRF-CEM leukemia): > 34.3 µM | TGI (HT29 colon): 25.1 µM | TGI (NCI-H460 lung): 30.9 µM | TGI (NCI-H522 lung): > 26.1 µM | TGI (OVCAR-8 ovarian): 57.3 µM | TGI (SF-539 CNS): 22.3 µM | TGI (SK-MEL-28 melanoma): 62.3 µM | TGI (SK-MEL-5 melanoma): > 23.7 µM | TGI (UACC-62 melanoma): > 61.6 µM

CC1=CCC2C3(C)CCC2(C(C)C)C1C3 (stereo unspecified) (tested in a mixture with another compound)
TGI (CAKI-1 renal): 40.7 µM | TGI (CCRF-CEM leukemia): 56.9 µM | TGI (HL-60(TB) leukemia): 57.3 µM | TGI (HT29 colon): 32.4 µM | TGI (NCI-H460 lung): 32.9 µM | TGI (NCI-H522 lung): 39.3 µM | TGI (OVCAR-8 ovarian): 33.2 µM | TGI (SF-539 CNS): 87.4 µM | TGI (SK-MEL-28 melanoma): 88.6 µM | TGI (UACC-62 melanoma): > 100 µM

Cc1c2c(n(CCc3ccccc3)c1C)N(C)N=C(C#N)S2(=O)=O
TGI (CAKI-1 renal): > 100 µM | TGI (HT29 colon): > 100 µM | TGI (NCI-H460 lung): > 100 µM | TGI (NCI-H522 lung): > 100 µM | TGI (OVCAR-8 ovarian): > 100 µM | TGI (SF-539 CNS): > 100 µM | TGI (SK-MEL-28 melanoma): > 100 µM | TGI (SK-MEL-5 melanoma): > 100 µM | TGI (UACC-62 melanoma): > 100 µM

CCN(CC)CCNC(=O)c1ccc(I)cc1
TGI (CAKI-1 renal): > 100 µM | TGI (CCRF-CEM leukemia): > 100 µM | TGI (HT29 colon): > 100 µM | TGI (NCI-H460 lung): > 100 µM | TGI (NCI-H522 lung): > 100 µM | TGI (OVCAR-8 ovarian): > 100 µM | TGI (SF-539 CNS): > 100 µM | TGI (SK-MEL-28 melanoma): > 100 µM | TGI (SK-MEL-5 melanoma): > 100 µM

O=C(Nc1c(C(F)(F)F)cc(-c2ccccc2)[nH]c1=O)N1CCOCC1
TGI (CAKI-1 renal): > 100 µM | TGI (CCRF-CEM leukemia): > 100 µM | TGI (HL-60(TB) leukemia): 79.5 µM | TGI (HT29 colon): > 100 µM | TGI (NCI-H460 lung): > 100 µM | TGI (NCI-H522 lung): > 100 µM | TGI (OVCAR-8 ovarian): > 100 µM | TGI (SK-MEL-28 melanoma): > 100 µM | TGI (SK-MEL-5 melanoma): > 100 µM | TGI (UACC-62 melanoma): > 100 µM

N#CC(C#N)=C(N)/C(C#N)=C/c1ccc2ccccc2n1
TGI (CAKI-1 renal): 65.1 µM | TGI (CCRF-CEM leukemia): > 100 µM | TGI (HT29 colon): 35.9 µM | TGI (NCI-H460 lung): > 100 µM | TGI (OVCAR-8 ovarian): > 100 µM | TGI (SK-MEL-28 melanoma): 43.2 µM | TGI (SK-MEL-5 melanoma): 51 µM | TGI (UACC-62 melanoma): 45.9 µM
